Experimental data taken from patent publication US20060110456A1, “Method for biocidal and/or biostatic treatment and compositions therefor” (NATIONAL UNIVERSITY OF SINGAPORE, priority 2004, published 2006).
Entries after “also recorded” stand apart in the source; their conditions may differ. Structures can show the parent of a compound that is named as a salt.

Experiments:
[1] = test system: biofilm bacteria (strains 4, 9, 14, 20, 27, 28); test: Effect of pharmaceuticals on adhesion of bacteria to plastic / biofilm formation on NTC and TC plates; format: cell-based, marine bacteria isolated from Singapore fouling communities
Procedure: Commercial forms of pharmaceuticals were used as previously described. […] These samples were sonicated for at least 1 min and these fine suspensions were used as initial stock solutions.
For studies of bacterial adhesion, the pharmaceuticals were first sterilized by soaking in absolute alcohol (Merck) for half an hour. Ethanol was removed by air-drying with air passed through 0.25 μm pore size syringe filter (Sartorius, Germany). Stock solutions were concentrations of 100 μg ml−1 in SDI.
The effect of pharmaceuticals on bacterial adhesion was analyzed using a modified microplate method adapted from Shea and Williamson (1990). This method employs a combination of staining attached bacteria with crystal violet, releasing the stain with sodium desoxycholate, and measuring the resulting absorbance of the crystal violet.
Detailed results for six selected strains are presented here: strains 4, 9, 14, 20, 27, 28. The bacterial strains were grown in Marine Broth (Pronadisa, Spain) overnight, in the dark, at 28° C. on a rotary shaker (150 rpm) in 5 ml centrifuge tubes (Falcon). Cells were harvested by centrifugation (1500×g, 10 min) and resuspended in sterile seawater (SSW). SSW was prepared by filtering seawater through a 0.2 μm pore size filter (Sartorius) followed by autoclaving. The cells were centrifuged and resuspended once more in SSW. The concentration of resuspended cells was adjusted to A600=1.0 using a spectrophotometer (Beckman DU530, USA).
Flat bottom 96 well polystyrene (hydrophobic, Falcon 351172) (=NTC) and tissue-culture treated polystyrene (hydrophilic, Falcon 353072) (=TC) microplates were used in the analyses. Each test was performed in triplicate. Two sets of experiments were conducted. […] For the control and blank wells, 25 ul of SDI were added. For wells containing pharmaceuticals, 25 ul of the respective pharmaceutical at a concentration of 100 ug ml−1 were added. This was immediately followed by the addition of 75 ul of bacterial suspension. To blanks were added 75 ul of SSW.
The bacterial cells in suspension were allowed to attach for 2 h at 28° C. Unattached cells were removed by aspiration using a plate washer (Tecan, Austria) and wells were rinsed three times with 200 ul of SSW each time. The attached cells were stained with 200 ul of crystal violet solution (0.1% w/v in deionized water) in each well for 5 min. After removing the stain using the plate washer, the wells were rinsed twice with 300 ul of SDI each time. Sodium desoxycholate (200 ul) solution (2% w/v in deionized water) was added to each well to extract the crystal violet from the attached stained cells for 10 min. The absorbance of the crystal violet was read at 590 nm using a microplate reader (Sunrise, Tecan, Austria).
Results of the adhesion assay were obtained by the difference in absorbance readings between wells containing bacterial cells and the mean of absorbance of those containing the SSW only. The effect of the pharmaceuticals on bacterial adhesion was determined by the examining the differences in absorbance between the wells containing the pharmaceuticals+bacteria and the bacteria. The significance was compared using T-test.

marine bacteria = test: Growth assay (absorbance, 96-well plates); format: cell-based, marine bacteria isolated from Singapore fouling communities
Procedure: The dried powder was re-suspended in sterile deionized water and made up to 2 mg ml^−1.
The same bacterial strains were used and cultured the same way as in disc inhibition assay. Cells were harvested by centrifugation at 300 rpm for 10 min. The supernatant was discarded and the pellet re-suspended using sterile seawater collected from St. John's island, Singapore. The concentration of bacterial cells was adjusted to an absorbance of approximately 0.6 using a spectrophotometer (Beckman DU530) at wavelength 600 nm.
The growth with response to the pharmaceuticals was assumed to be proportional to the absorbance of the bacteria. […] To each well 25 μl of each drug solution (concentration adjusted to 100 μg ml^−1) were pipetted into three wells followed by 10 μl of broth and 65 μl of sterile seawater. For wells that were to contain bacteria, 60 μl of sterile seawater was used instead. All wells used for growth studies were prepared in triplicate and inoculated with 5 μl of the bacterial suspension. Blanks consisting of the respective volumes of pharmaceutical with Marine Broth and distilled water, if needed, were prepared in triplicate and inoculated with 5 μl of sterile seawater.
The absorbance (A600) of each well was read in a plate reader (Sunrise Tecan Model F039300) immediately (time=0 hours) and after 1, 2, 3, 4, 20, 23 and 28 hours. Plates were incubated overnight inside a moistened airtight container.
Any changes in absorbance were plotted and compared with control. The mean absorbance (mean bac) from the bacteria was obtained by deducting the absorbance values of blank wells (containing seawater and broth only) from that for the control wells (containing bacteria in seawater and broth only). The absorbance arising from the drugs was obtained from the 0 hr reading for wells containing drugs and bacteria, minus the wells with drugs alone (mean “drug”). The growth assays were repeated three times.

`CN1CCN(CCCN2c3ccccc3Sc3ccc(Cl)cc32)CC1` [PCZ, prochlorperazine maleate] was tested, and the “Effect on formation of bacterial biofilms on NTC and TC plates” value ([1]; 25 ug ml−1, NTC = untreated polystyrene, TC = tissue-culture treated, strains 4, 9, 14, 20, 27, 28) was “reduced biofilm formation only for strains 4 and 27; also recorded: active against strain 4, and a slight effect on strain 27”, the “Prevention of formation of biofilm” value ([1]; crude rank, best (1) to worst (8)) was 4 and the “Number of strains with strongly inhibited growth” value (marine bacteria; 25 μg ml^−1, 25 strains of Table 5) was 11. For the same compound, the “Growth response (absorbance over time)” value (marine bacteria; 25 μg ml−1, strain named in the value) was “slight growth response of bacteria strain 11”, the “Inhibition of bacterial growth” value (marine bacteria; strain 1 (Rhodovulum), 25 μg ml^−1) was 0 and the “Inhibition of bacterial growth” value (marine bacteria; strain 2 (Erythrobacter), 25 μg ml^−1) was 0. The “Inhibition of bacterial growth” value (marine bacteria; strain 3 (Erythrobacter), 25 μg ml^−1) was “+++ (+++ denotes little or no growth, p < 0.001)”, the “Inhibition of bacterial growth” value (marine bacteria; strain 4 (Bacillus), 25 μg ml^−1) was “+++ (+++ denotes little or no growth, p < 0.001)” and the “Inhibition of bacterial growth” value (marine bacteria; strain 6 (Vibrio), 25 μg ml^−1) was 0. For the same compound, the “Inhibition of bacterial growth” value (marine bacteria; strain 7 (Vibrio), 25 μg ml^−1) was “+ (+ denotes growth present but inhibited, p < 0.01)”, the “Inhibition of bacterial growth” value (marine bacteria; strain 8 (Bacillus), 25 μg ml^−1) was “+++ (+++ denotes little or no growth, p < 0.001)” and the “Inhibition of bacterial growth” value (marine bacteria; strain 9 (Bacillus), 25 μg ml^−1) was “+++ (+++ denotes little or no growth, p < 0.001)”. The “Inhibition of bacterial growth” value (marine bacteria; strain 10 (Halobacillus), 25 μg ml^−1) was “+++ (+++ denotes little or no growth, p < 0.001)”, the “Inhibition of bacterial growth” value (marine bacteria; strain 11 (Pseudomonas), 25 μg ml^−1) was “+ (+ denotes growth present but inhibited, p < 0.01)” and the “Inhibition of bacterial growth” value (marine bacteria; strain 12 (Gordonia), 25 μg ml^−1) was “+++ (+++ denotes little or no growth, p < 0.001)”. The “Inhibition of bacterial growth” value (marine bacteria; strain 13 (Bacillus), 25 μg ml^−1) was “+++ (+++ denotes little or no growth, p < 0.001)”, the “Inhibition of bacterial growth” value (marine bacteria; strain 14 (Vibrio), 25 μg ml^−1) was 0 and the “Inhibition of bacterial growth” value (marine bacteria; strain 16 (Pseudoalteromonas), 25 μg ml^−1) was 0. For the same compound, the “Inhibition of bacterial growth” value (marine bacteria; strain 17 (Gordonia), 25 μg ml^−1) was “+++ (+++ denotes little or no growth, p < 0.001)”, the “Inhibition of bacterial growth” value (marine bacteria; strain 18 (Microbacterium), 25 μg ml^−1) was “+++ (+++ denotes little or no growth, p < 0.001)” and the “Inhibition of bacterial growth” value (marine bacteria; strain 19 (Erythrobacter), 25 μg ml^−1) was “+++ (+++ denotes little or no growth, p < 0.001)”. The “Inhibition of bacterial growth” value (marine bacteria; strain 20, 25 μg ml^−1) was “+ (+ denotes growth present but inhibited, p < 0.01)”, the “Inhibition of bacterial growth” value (marine bacteria; strain 21, 25 μg ml^−1) was 0 and the “Inhibition of bacterial growth” value (marine bacteria; strain 24, 25 μg ml^−1) was 0. For the same compound, the “Inhibition of bacterial growth” value (marine bacteria; strain 26, 25 μg ml^−1) was 0, the “Inhibition of bacterial growth” value (marine bacteria; strain 27, 25 μg ml^−1) was “+ (+ denotes growth present but inhibited, p < 0.01)” and the “Inhibition of bacterial growth” value (marine bacteria; strain 28, 25 μg ml^−1) was 0. The “Inhibition of bacterial growth” value (marine bacteria; strain 29, 25 μg ml^−1) was “+ (+ denotes growth present but inhibited, p < 0.01)” and the “Inhibition of bacterial growth” value (marine bacteria; strain 30, 25 μg ml^−1) was “+++ (+++ denotes little or no growth, p < 0.001)”.
